Test results reported in patent US9481876B2, “Cathepsin L inhibitors and probes comprising vinyl sulfonate moiety and methods of using same” (Research Foundation of the City University of New York, priority 2014, dated 2016).
“Also recorded” adds a separate entry of the source.

Columns and labels:
[1] = target: T1, recombinant human cathepsin L (Homo sapiens, UniProt P07711); test: initial inhibitory screen of precursors against recombinant human cathepsin L; format: biochemical; conditions: 10 μM
T1 sequence (P07711 18-333 limits assumed): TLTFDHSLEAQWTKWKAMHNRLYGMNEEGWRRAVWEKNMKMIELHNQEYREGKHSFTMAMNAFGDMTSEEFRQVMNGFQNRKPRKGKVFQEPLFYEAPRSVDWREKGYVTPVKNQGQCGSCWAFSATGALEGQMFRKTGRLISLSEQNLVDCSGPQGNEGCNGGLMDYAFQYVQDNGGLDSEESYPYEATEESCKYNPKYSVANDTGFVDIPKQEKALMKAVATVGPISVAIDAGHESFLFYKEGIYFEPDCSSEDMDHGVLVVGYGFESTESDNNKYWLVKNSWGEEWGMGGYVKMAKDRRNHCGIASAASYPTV
Description: An initial inhibitory screen of various precursors (see FIG. 3A and FIG. 3B) was performed at 10 μM against recombinant human cathepsin L. The percent inhibition of each precursor is shown below its corresponding precursor in FIG. 3A and FIG. 3B. Precursor 301 was identified as a lead precursor with a 95±3% inhibition. In some embodiments, one or more of the 2, 3, 5 and/or 6 positions are occupied by an aryl group. Examples of suitable aryl groups include NHPh, OPh or homologs thereof.

hPTP1B = target: T2, hPTP1B (Homo sapiens, UniProt P18031); test: selectivity panel inactivation kinetics, hPTP1B; format: biochemical
T2 sequence (P18031 1-435): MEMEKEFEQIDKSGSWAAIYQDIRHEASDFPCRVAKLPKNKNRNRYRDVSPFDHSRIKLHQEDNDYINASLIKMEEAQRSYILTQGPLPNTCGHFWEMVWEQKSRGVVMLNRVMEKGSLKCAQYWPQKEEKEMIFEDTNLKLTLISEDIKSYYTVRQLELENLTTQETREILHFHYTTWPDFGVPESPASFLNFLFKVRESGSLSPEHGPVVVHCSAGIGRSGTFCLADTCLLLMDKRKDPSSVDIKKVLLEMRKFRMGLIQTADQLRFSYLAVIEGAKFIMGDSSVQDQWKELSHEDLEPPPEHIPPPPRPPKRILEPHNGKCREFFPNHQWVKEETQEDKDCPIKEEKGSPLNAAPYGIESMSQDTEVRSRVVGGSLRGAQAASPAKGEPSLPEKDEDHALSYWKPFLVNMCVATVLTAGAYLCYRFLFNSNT
Text: (§1) This panel of enzymes included cysteine cathepsins, an aspartyl cathepsin, a serine cathepsin, a cysteine containing enzyme PTP, and a serine protease. The second order inactivation rate constants were thus determined by performing inactivation kinetics under a pseudo-first order condition (Table 1). […] Furthermore, no reactivity was observed against other panel of enzymes (e.g. aspartyl cathepsin D, serine cathepsin G, and a low pKa cysteine containing enzyme hPTP1B, and serine protease trypsin). A remarkable selectivity profile observed for compound 100 in these experiments is noteworthy, and thus is thought to lend itself well for the development of cathepsin L probes.
(§2) Table 1 depicts second order enzyme inactivation rate constants (kinact) of compound 100 against a panel of closely-related enzymes. Relative Selectivity Factor (RSF)=kinact (Cathepsin L)/kinact (other enzyme); NI*=no inhibition at 0.1 mM of compound 100 in 1 h, NA**=Not Applicable.

Cathepsin K = target: T3, Cathepsin K (Homo sapiens, UniProt P43235); test: selectivity panel inactivation kinetics, Cathepsin K; format: biochemical; conditions: kinact (Cathepsin L)/kinact (Cathepsin K); fold
T3 sequence (P43235 115-329): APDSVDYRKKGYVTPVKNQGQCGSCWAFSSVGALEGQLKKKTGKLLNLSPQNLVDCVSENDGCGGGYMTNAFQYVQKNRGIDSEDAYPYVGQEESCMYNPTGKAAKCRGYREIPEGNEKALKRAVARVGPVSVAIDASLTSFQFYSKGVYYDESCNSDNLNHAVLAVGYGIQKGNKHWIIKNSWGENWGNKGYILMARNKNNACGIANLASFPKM
Text: as §1, §2

Cathepsin G = target: T4, Cathepsin G (Homo sapiens, UniProt P08311); test: selectivity panel inactivation kinetics, Cathepsin G; format: biochemical; conditions: serine cathepsin G
T4 sequence (P08311 21-244): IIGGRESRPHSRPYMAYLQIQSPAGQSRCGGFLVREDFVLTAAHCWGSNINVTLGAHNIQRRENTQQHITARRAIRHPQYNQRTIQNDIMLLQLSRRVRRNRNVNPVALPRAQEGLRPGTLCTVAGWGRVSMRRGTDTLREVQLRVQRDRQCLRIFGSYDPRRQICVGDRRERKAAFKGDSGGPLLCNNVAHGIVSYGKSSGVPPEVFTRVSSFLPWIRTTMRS
Text: as §1, §2

Cathepsin D = Cathepsin D (Homo sapiens, UniProt P07339); test: selectivity panel inactivation kinetics, Cathepsin D; format: biochemical; conditions: aspartyl cathepsin D
Cathepsin D, sequence (P07339 65-412, species assumed): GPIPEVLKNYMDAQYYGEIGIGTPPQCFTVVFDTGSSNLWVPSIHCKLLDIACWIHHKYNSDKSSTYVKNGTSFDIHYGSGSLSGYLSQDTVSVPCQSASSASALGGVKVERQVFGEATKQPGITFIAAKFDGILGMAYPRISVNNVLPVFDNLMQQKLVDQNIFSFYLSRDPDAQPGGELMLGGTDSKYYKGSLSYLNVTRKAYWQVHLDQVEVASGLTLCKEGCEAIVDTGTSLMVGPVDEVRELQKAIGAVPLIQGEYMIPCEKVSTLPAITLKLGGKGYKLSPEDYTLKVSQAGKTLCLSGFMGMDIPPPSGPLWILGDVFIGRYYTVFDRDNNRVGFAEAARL
Text: as §1, §2

Cathepsin S = Cathepsin S (Homo sapiens, UniProt P25774); test: selectivity panel inactivation kinetics, Cathepsin S; format: biochemical; conditions: kinact (Cathepsin L)/kinact (Cathepsin S); fold
Cathepsin S, sequence (P25774 115-331, species assumed): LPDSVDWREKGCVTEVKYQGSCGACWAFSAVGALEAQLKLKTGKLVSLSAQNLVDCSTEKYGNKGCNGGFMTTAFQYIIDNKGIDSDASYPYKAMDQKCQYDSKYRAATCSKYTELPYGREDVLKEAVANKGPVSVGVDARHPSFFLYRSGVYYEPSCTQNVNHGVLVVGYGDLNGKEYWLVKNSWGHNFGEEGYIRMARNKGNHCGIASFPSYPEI
Text: as §1, §2

[2] = test system: intracellular cathepsin L activity in MDA-MB-231 cells; test: intracellular cathepsin L activity in MDA-MB-231 cells with cell-permeable fluorescent substrate; format: cell-based
Text: Cell-specific and tissue-specific microenvironments are highly dynamic, and can have a dramatic impact on enzymatic activities and their in vivo function. A direct quantitative reporter of cathepsin L activity in living cancer cells is more desirable for dissecting its role in promoting metastatic cancer. Thus an activity-dependent small molecule probe with desirable cell permeability is urgently needed. […] This cell line is known to overexpress cathepsin L, thereby promoting invasion. A commercial cell-permeable fluorescent substrate of cathepsin L (Enzo LifeSciences, Inc.) was utilized to assess the intracellular inhibitory efficacy of compound 100.
Specifically, the effect of cathepsin L inhibitor 100 on intracellular cathepsin L activity in metastatic breast cancer MDA-MB-231 cell line was examined by fluorescence. Control cells and cells exposed to compound 100 were incubated with (a) vehicle (DMSO 0.05%). The non-control cells were also incubated with compound 100 (750 nM) overnight (22 h). […] Bright-field, fluorescence and merged images were obtained. […] The results are representative of three independent experiments. The effectiveness of cathepsin L inhibitor 100 was also evaluated using a functional wound-healing assay (FIG. 6A to 6F).

[3] = target: T5, active recombinant human cathepsin L (Homo sapiens, UniProt P07711); test: inhibition and inactivation kinetics of cathepsin L, hydrolysis of fluorescent substrate Z-Phe-Arg-(7-Amino-4-methylcoumarin); format: biochemical
T5 construct: active recombinant human cathepsin L
Text: Based on this initial inhibitory screen compound 100 (FIG. 1), was proposed and successfully synthesized from precursor 301 using a multi-step synthetic methodology (FIG. 4A and FIG. 4B). […] FIG. 5 depicts a progress curve for cathepsin L-catalyzed hydrolysis of fluorescent substrate, Z-Phe-Arg-(7-Amino-4-methylcoumarin) with various concentration of compound 100. […] The dose-dependent progress curves were utilized to obtain the second order cathepsin L inactivation rate constant (kinact). […] The mode of inhibition was irreversible because no significant recovery of enzyme activity could be achieved, even after a very large dilution of inactivated reaction mixture.
as §1, §2

[4] = test system: MDA-MB-231 breast cancer cells; test: wound healing assay, cell migration; format: cell-based; conditions: MDA-MB-231 cells, 750 nM, 0, 7 and 22 hrs
Description: MDA-MB-231 cells were grown in an eight-well glass dish overnight before treating with DMSO (control, 0.05%, FIGS. 6A, 6B and 6C), and compound 100 (750 nM, FIGS. 6D, 6E and 6F). After creating the wounds, images were taken at three different time intervals: t=0 hr (FIG. 6A and FIG. 6D), 7 hrs (FIG. 6B and FIG. 6E), and 22 hrs (FIG. 6C and FIG. 6F). Representative images of three independent experiments are shown. The dotted lines indicate the edge of the wound at time zero, and the arrows indicate the area of wound closure.
FIG. 7 depicts wound closure, a direct measure of cell migratory potential, as calculated using the following equation: % Wound Closure=[(At=0h−At=22h)/At=0h]×100%, where At=0h is the area of the wound measured immediately after the scratch, and At=22h is the area of the wound after 22 hrs. The figure represents a statistical analysis by three independent experiments using the unpaired Student's t test. The data were evaluated as the mean±1 standard deviation. The image analysis were performed by ImageJ software.

Trypsin = test: selectivity panel inactivation kinetics, Trypsin; format: biochemical; conditions: serine protease trypsin
Text: as §1, §2

Cathepsin B = Cathepsin B (Homo sapiens, UniProt P07858); test: selectivity panel inactivation kinetics, Cathepsin B; format: biochemical; conditions: kinact (Cathepsin L)/kinact (Cathepsin B); fold
Text: as §1, §2

Row | SMILES | percent inhibition [1] | reactivity (hPTP1B) | RSF (Relative Selectivity Factor) (Cathepsin K) | reactivity (Cathepsin G) | reactivity (Cathepsin D) | RSF (Relative Selectivity Factor) (Cathepsin S) | cell permeability [2] | intracellular substrate turnover (green fluorescence) ([2]; 750 nM, overnight (22 h), compared to control) | time to near complete loss of cathepsin L activity ([3]; 15 nM compound 100) | IC50 ([3]; human cathepsin L) | RSF (Relative Selectivity Factor) ([3]; kinact (Cathepsin L)/kinact (Cathepsin L)) | mode of inhibition ([3]; no significant recovery of activity after very large dilution) | cell migratory potential (wound closure) [4] | reactivity (Trypsin) | RSF (Relative Selectivity Factor) (Cathepsin B)
1 | C=CS(=O)(=O)Oc1ccc(Br)cc1 [Precursor 301] | 95±3% | – | – | – | – | – | – | – | – | – | – | – | – | – | –
2 | CC(C)C[C@@H](/C=C/S(=O)(=O)Oc1ccc(Br)cc1)NC(=O)[C@H](Cc1ccccc1)NC(=O)OCc1ccccc1 [compound 100] | – | no reactivity | 100 | no reactivity | no reactivity | 13 | cell permeable | near complete loss of intracellular substrate turnover; also recorded: significant loss of green fluorescent signal intensity | less than 100 s | 3.6 ± 0.1 nM | 1 | irreversible | reducing cell migratory potential | no reactivity | 44,000
